Read-outs that look alike come from different tables or passages of the source.
Key:
AHR [1] = molecular target: T1, AHR (Mus musculus, UniProt P30561); test: In vitro assay 3: antagonism in mouse cell line (AHR transactivation, firefly luciferase reporter, kynurenic acid prestimulated); type: cell-based
T1 sequence (P30561 1-848 P471L/N533S/M589L): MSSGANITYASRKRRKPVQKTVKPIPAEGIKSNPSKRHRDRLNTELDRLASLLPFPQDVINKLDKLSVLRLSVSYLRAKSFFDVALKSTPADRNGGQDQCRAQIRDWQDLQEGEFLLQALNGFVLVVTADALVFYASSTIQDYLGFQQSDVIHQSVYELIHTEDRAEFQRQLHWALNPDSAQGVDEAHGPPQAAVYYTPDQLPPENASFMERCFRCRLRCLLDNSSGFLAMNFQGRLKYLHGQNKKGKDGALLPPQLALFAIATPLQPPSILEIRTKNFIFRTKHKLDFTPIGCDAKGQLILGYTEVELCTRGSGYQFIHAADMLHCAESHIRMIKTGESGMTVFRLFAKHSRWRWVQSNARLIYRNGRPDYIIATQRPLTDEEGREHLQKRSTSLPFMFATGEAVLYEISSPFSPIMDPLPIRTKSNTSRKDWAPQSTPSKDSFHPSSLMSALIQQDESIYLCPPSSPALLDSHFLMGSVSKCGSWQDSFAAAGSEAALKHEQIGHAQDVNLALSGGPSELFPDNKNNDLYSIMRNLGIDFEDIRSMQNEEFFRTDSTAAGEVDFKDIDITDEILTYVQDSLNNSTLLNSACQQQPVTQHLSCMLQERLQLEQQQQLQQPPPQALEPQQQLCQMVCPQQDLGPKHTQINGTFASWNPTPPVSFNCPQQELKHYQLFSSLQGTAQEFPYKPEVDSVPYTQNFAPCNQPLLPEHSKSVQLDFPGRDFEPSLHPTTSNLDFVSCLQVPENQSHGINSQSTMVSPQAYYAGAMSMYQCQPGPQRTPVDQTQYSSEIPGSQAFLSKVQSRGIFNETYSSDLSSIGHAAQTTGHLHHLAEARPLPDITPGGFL
Procedure, shortened: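 Cells were first stimulated with kynurenic acid, then exposed to test compound, after which firefly luciferase from a DRE-containing AHR reporter was read out. Signal was scaled between positive and negative controls. Cells not given kynurenic acid provided the inhibition reference.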

AHR [2] = molecular target: T2, AHR (Homo sapiens, UniProt P35869); test: In vitro assay 1: antagonism in human cell line (AHR transactivation, firefly luciferase reporter, kynurenic acid prestimulated); type: cell-based; details: AHR Antagonism Human IC50 [M]
T2 construct: U87 MG glioblastoma cells (ATCC #HTB-14) endogenously expressing AHR; endogenous in cells; host or cells: U87 MG glioblastoma cells (ATCC #HTB-14)
T2 sequence (P35869 11-848): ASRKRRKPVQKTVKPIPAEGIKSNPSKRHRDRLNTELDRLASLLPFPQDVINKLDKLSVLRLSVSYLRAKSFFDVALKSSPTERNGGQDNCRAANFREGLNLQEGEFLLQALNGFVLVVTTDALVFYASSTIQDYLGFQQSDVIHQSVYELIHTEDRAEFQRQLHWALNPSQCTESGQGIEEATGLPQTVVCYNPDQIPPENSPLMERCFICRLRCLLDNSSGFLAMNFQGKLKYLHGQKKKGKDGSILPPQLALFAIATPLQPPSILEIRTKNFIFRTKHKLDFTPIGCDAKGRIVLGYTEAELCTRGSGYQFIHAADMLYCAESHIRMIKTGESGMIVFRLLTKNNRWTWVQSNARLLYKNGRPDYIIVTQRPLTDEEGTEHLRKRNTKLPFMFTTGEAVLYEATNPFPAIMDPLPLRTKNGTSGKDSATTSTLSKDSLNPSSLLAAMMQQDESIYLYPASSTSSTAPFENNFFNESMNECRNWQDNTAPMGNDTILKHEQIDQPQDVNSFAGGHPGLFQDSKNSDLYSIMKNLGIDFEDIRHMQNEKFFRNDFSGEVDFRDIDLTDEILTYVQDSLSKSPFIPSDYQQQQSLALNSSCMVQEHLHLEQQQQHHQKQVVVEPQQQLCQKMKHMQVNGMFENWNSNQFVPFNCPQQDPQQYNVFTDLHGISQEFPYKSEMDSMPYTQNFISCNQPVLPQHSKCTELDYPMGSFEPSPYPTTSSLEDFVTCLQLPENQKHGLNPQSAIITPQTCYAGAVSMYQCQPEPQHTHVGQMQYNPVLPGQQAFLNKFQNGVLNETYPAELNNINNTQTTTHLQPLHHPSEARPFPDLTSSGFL
Procedure, shortened: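 U87 MG + DRE-firefly/constitutive-Renilla stable reporters; kynurenic acid prestim; dual-luc read; Renilla = tox; normalized vs pos/neg controls (pos: 150 μM KYNA + 5 μM staurosporine).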

[3] = mouse Hepa 1c1c7 cells, 200 μM kynurenic acid, 20 hours, read-out: AHR Antagonism Mouse IC50
[4] = Hepa 1c1c7 cells, 200 μM kynurenic acid, 20 hours, firefly luciferase reporter, read-out: AHR Antagonism Mouse IC50

IC50 (AHR [1]; [3]) [nM]	IC50 (AHR [2]) [M]	IC50 (AHR [1]; [4]) [nM]	IC50 (AHR [2]; firefly luciferase reporter) [M]	Structure (SMILES)	IC50 (AHR [1]; read-out: AHR Antagonism Mouse IC50, mouse Hepa 1c1c7 cells, 200 μM kynurenic acid, 20 hours) [nM]
–	–	1.71	1.32e-09	COc1ccc(-c2nc3c4cccc(Br)c4nc(N[C@H](C)C(=O)N4CCN(C)[C@H](C)C4)n3n2)cc1 [Example 913, (2R)-2-{[7-bromo-2-(4-methoxyphenyl)[1,2,4]triazolo[1,5-c]quinazolin-5-yl]amino}-1-[(3R)-3,4-dimethylpiperazin-1-yl]propan-1-one]	–
2210	1.24e-06	–	–	Cn1cc(-c2nc3c4ccccc4nc(NC4CCCNC4=O)n3n2)cn1 (single isomer, unassigned) [Example 20, 3-{[2-(1-methyl-1H-pyrazol-4-yl)[1,2,4]triazolo[1,5-c]quinazolin-5-yl]amino}piperidin-2-one]	–
–	–	61.7	2.31e-08	C[C@@H](Nc1nc2c(C(F)(F)F)cccc2c2nc(-c3cnn(C)c3)nn12)C(=O)N1CCOCC1 [Example 874, (2R)-2-{[2-(1-methyl-1H-pyrazol-4-yl)-7-(trifluoromethyl)[1,2,4]triazolo[1,5-c]quinazolin-5-yl]amino}-1-(morpholin-4-yl)propan-1-one]	–
–	–	4590	5.88e-07	C[C@@H](Nc1nc2c(Br)cccc2c2nc(-c3cnn(C)c3)nn12)C(=O)NCCN1CCNCC1 [Example 993, N^2-[7-bromo-2-(1-methyl-1H-pyrazol-4-yl)[1,2,4]triazolo[1,5-c]quinazolin-5-yl]-N-[2-(piperazin-1-yl)ethyl]-D-alaninamide-hydrogen chloride (1/2)]	–
–	–	13500	1.78e-07	CN(C)c1cccc2c1nc(N[C@@H]1CCCCNC1=O)n1nc(-c3cnn(C)c3)nc21 [Example 828, (3R)-3-{[7-(dimethyalmino)-2-(1-methyl-1H-pyrazol-4-yl)[1,2,4]triazolo[1,5-c]quinazolin-5-yl]amino}azepan-2-one]	–
–	–	232	1.29e-08	CC(C)n1cc(-c2nc3c4cccc(S(C)(=O)=O)c4nc(N[C@@H]4CCCCNC4=O)n3n2)cn1 [Example 846, (3R)-3-({7-(methanesulfonyl)-2-[1-(propan-2-yl)-1H-pyrazol-4-yl][1,2,4]triazolo[1,5-c]quinazolin-5-yl}amino)azepan-2-one]	–
–	–	71.5	6.33e-09	CC(C)n1cc(-c2nc3c4cccc(C5CC5)c4nc(N[C@@H]4CCCCNC4=O)n3n2)cn1 [Example 820, (3R)-3-({7-cyclopropyl-2-[1-(propan-2-yl)-1H-pyrazol-4-yl][1,2,4]triazolo[1,5-c]quinazolin-5-yl}amino)azepan-2-one]	–
112	7.21e-08	–	–	Cn1cc(-c2nc3c4c(C(F)(F)F)cccc4nc(N[C@@H]4CCCCNC4=O)n3n2)cn1 [Example 173, (3R)-3-{[2-(1-methyl-1H-pyrazol-4-yl)-10-(trifluoromethyl)[1,2,4]triazolo[1,5-c]quinazolin-5-yl]amino}azepan-2-one]	–
–	–	0.739	2.98e-10	Cc1nn(C)cc1-c1nc2c3cccc(Cl)c3nc(N[C@@H]3CCCCNC3=O)n2n1 [Example 821, (3R)-3-{[7-chloro-2-(1,3-dimethyl-1H-pyrazol-4-yl)[1,2,4]triazolo[1,5-c]quinazolin-5-yl]amino}azepan-2-one]	–
8.92	3.94e-09	–	–	Cc1c(-c2nc3c4cccc(C(F)(F)F)c4nc(N[C@@H]4CCCCNC4=O)n3n2)cnn1C [Example 734, (3R)-3-{[2-(1,5-dimethyl-1H-pyrazol-4-yl)-7-(trifluoromethyl)[1,2,4]triazolo[1,5-c]quinazolin-5-yl]amino}azepan-2-one]	–

The next lines start with the compound.

Structure (SMILES)	IC50 (AHR [1]; [3]) [nM]	IC50 (AHR [2]) [M]	IC50 (AHR [1]; [4]) [nM]	IC50 (AHR [2]; firefly luciferase reporter) [M]	IC50 (AHR [1]; read-out: AHR Antagonism Mouse IC50, mouse Hepa 1c1c7 cells, 200 μM kynurenic acid, 20 hours) [nM]
N#Cc1cccc(-c2nc3c4ccccc4nc(N[C@@H]4CCNC4=O)n3n2)c1 [Example 383, 3-(5-{[(3R)-2-oxopyrrolidin-3-yl]amino}[1,2,4]triazolo[1,5-c]quinazolin-2-yl)benzonitrile]	388	1.39e-07	–	–	–
CC[C@@H](Nc1nc2c(Br)cccc2c2nc(-c3ccc(OC)cc3)nn12)C(N)=O [Example 557, (2R)-2-{[7-bromo-2-(4-methoxyphenyl)[1,2,4]triazolo[1,5-c]quinazolin-5-yl]amino}butanamide]	0.865	2.39e-10	–	–	–
O=C1NCCCC[C@H]1Nc1nc2ccccc2c2nc(-c3cc(F)ccc3F)nn12 [Example 197, (3R)-3-{[2-(2,5-difluorophenyl)[1,2,4]triazolo[1,5-c]quinazolin-5-yl]amino}azepan-2-one]	1.82	4.23e-09	–	–	–
COc1ccc(-c2nc3c4cc(F)ccc4nc(N[C@@H]4CCCCNC4=O)n3n2)cc1 [Example 231, (3R)-3-{[9-fluoro-2-(4-methoxyphenyl)[1,2,4]triazolo[1,5-c]quinazolin-5-yl]amino}azepan-2-one]	0.406	8.14e-10	–	–	–
COCc1noc(-c2nc3c4ccccc4nc(N[C@@H]4CCCCNC4=O)n3n2)n1 [Example 303, (3R)-3-({2-[3-(Methoxymethyl)-1,2,4-oxadiazol-5-yl][1,2,4]triazolo[1,5-c]quinazolin-5-yl}amino)azepan-2-one]	293	4.52e-07	–	–	–
CCCNC(=O)[C@@H](C)Nc1nc2ccccc2c2nc(-c3ccc(S(C)(=O)=O)cc3)nn12 [Example 439, N^2-{2-[4-(methanesulfonyl)phenyl][1,2,4]triazolo[1,5-c]quinazolin-5-yl}-N-propyl-D-alaninamide]	27	4.52e-08	–	–	–
CC[C@@H](Nc1nc2ccccc2c2nc(-c3cccc(OC)c3)nn12)C(N)=O [Example 88, (2R)-2-{[2-(3-methoxyphenyl)[1,2,4]triazolo[1,5-c]quinazolin-5-yl]amino}butanamide]	0.437	2.11e-09	–	–	–
COc1ccc(-c2nc3c4cccc(CO)c4nc(N[C@@H]4CCCCNC4=O)n3n2)cc1 [Example 860, (3R)-3-{[7-(hydroxymethyl)-2-(4-methoxyphenyl)[1,2,4]triazolo[1,5-c]quinazolin-5-yl]amino}azepan-2-one]	–	–	16	9.26e-10	–
COc1cccc(-c2nc3c4ccccc4nc(N[C@@H](C(N)=O)C(C)C)n3n2)c1 [Example 103, N^2-[2-(3-methoxyphenyl)[1,2,4]triazolo[1,5-c]quinazolin-5-yl]-D-valinamide]	0.345	4.43e-09	–	–	–
Cn1cncc1-c1nc2c3ccccc3nc(N[C@@H]3CCCCNC3=O)n2n1 [Example 610, (3R)-3-{[2-(1-methyl-1H-imidazol-5-yl)[1,2,4]triazolo[1,5-c]quinazolin-5-yl]amino}azepan-2-one]	86.5	2.44e-07	–	–	–
O=C1NCCNC[C@H]1Nc1nc2cccc(C(F)(F)F)c2c2nc(-c3cccc(F)c3)nn12 [Example 288, (6R)-6-{[2-(3-fluorophenyl)-10-(trifluoromethyl)[1,2,4]triazolo[1,5-c]quinazolin-5-yl]amino}-1,4-diazepan-5-one]	–	> 2e-05	–	–	887

— US20230113037A1 (Bayer Aktiengesellschaft, priority 2019, published 2023)
